The target of the assay is T1, IR (Homo sapiens, UniProt P06213).
T1 construct: expressed in transfected cells; host or cells: NIH3T3 fibroblasts over expressing IR
Kind of assay: Insulin receptor activation and signaling in fibroblasts overexpressing IR. Type of assay: cell-based. Conditions: fibroblasts over-expressing IR, insulin stimulation. As to the method:
Tyrosine autophosphorylation of the β-subunit of IGF1R as well as downstream signaling induced by IGF1R were assayed in breast cancer MCF7 cells. Tyrosine autophosphorylation of the EGFR and the EGFR signaling was assayed in prostate cancer PC3 cells. Tyrosine autophosphorylation of the PDGFR and its signaling was assayed in fibroblasts overexpres sing PDGFR. Tyro sine autophosphorylation of the IR and its signaling was assayed in fibroblasts overexpressing IR. Cells were seeded in 6-well plates (MCF7-250,000 cells/well, PC3-150,000 cells/well, fibroblasts-140,000 cells/well) and 24 hours later medium was replaced by serum-free medium (DMEM supplemented with 100 units/ml penicillin and 100 μg/ml streptomycin). Following 20 hours of serum-starvation medium was replaced with medium containing various concentrations of the inhibitors in 0.1% DMSO for additional 4 hours. Cells were then stimulated for 5 min with 50 ng/ml IGF-1 (MCF7 cells), 20 ng/ml EGF (PC3 cells), 50 ng/ml PDGF (fibroblasts overexpressing PDGFR) or 100 nM insulin (fibroblasts overexpressing IR), washed twice with PBS and lysed by boiling sample buffer (10% glycerol, 50 mM Tris-HCl, pH 6.8, 3% SDS, and 5%, β-mercaptoethanol). Equal amounts of protein per lane were separated by 8% SDS-PAGE and transferred to a nitrocellulose membrane (Sartorius AG). […]

The structures appear in SMILES notation.

T1 sequence (P06213 28-1382): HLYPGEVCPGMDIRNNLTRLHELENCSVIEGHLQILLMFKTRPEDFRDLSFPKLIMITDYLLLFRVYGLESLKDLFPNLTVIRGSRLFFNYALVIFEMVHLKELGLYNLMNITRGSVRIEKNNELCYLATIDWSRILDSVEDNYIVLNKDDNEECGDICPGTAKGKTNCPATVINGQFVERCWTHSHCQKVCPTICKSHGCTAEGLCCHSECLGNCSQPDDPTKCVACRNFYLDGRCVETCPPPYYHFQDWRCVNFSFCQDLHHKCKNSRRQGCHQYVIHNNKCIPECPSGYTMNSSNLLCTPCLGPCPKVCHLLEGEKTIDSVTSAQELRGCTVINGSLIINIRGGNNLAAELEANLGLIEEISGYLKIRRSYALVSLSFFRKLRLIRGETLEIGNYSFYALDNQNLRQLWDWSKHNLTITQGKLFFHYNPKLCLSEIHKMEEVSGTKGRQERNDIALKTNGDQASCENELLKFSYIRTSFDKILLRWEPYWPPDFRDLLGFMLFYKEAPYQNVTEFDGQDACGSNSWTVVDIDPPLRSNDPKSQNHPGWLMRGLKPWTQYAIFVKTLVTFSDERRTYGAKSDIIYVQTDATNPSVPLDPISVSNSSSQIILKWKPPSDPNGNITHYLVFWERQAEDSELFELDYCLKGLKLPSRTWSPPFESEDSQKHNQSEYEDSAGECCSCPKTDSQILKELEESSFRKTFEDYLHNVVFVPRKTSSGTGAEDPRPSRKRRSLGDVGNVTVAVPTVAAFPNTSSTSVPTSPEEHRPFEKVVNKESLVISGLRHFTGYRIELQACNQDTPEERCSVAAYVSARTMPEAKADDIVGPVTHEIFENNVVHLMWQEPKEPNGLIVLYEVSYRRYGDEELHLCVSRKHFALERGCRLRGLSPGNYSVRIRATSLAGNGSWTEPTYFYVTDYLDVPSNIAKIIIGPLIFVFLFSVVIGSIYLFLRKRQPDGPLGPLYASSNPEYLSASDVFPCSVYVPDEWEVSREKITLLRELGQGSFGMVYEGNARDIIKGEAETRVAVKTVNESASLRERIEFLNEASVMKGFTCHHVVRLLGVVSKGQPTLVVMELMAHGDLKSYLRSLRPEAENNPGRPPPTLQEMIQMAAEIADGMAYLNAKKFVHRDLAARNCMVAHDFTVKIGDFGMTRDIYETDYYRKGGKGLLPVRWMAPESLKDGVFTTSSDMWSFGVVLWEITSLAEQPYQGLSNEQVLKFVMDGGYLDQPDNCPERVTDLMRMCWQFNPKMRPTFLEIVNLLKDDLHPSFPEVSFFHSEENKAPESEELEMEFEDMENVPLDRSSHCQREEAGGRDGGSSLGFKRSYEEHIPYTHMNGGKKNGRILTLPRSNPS

Consider `N#C/C(=C\c1cc(O)c(O)c(Br)c1)C(=S)NCc1cc(O)c(O)c(O)c1` [Compound 7], for which the “Inhibition of IR in intact cells” value is “inhibits”.

These data come from patent US8058309B2, “Protein kinase modulators and therapeutic uses thereof” (Novotyr Therapeutics Ltd., priority 2006, dated 2011).
